We go through one compound from US20230201221A1, “USE OF TERPENOIDS IN THE TREATMENT OR PREVENTION OF FIBROTIC DISEASES” (ARJIL BIOTECH HOLDING COMPANY LIMITED, priority 2020, published 2023).

The structures appear in SMILES notation.

Assay type in all cases: in vivo
One assay deals with SD rats. Kind of assay: CCl4-induced chronic liver fibrosis in rat. Here is the method: Blood samples are collected at week 0, 2, 4, 6, and 8. The animals are sacrificed at the end of the 8-week for histopathological examinations. FIGS. 7A, 7B, 7C depict delta weight, liver weight, and liver/body-weight ratio, respectively.
The level of clinical biochemistry such as aspartate aminotransferase (AST), alanine aminotransferase (ALT), is evaluated to determine the enzymatic activities of the livers of the control groups and the experimental groups (shown in FIGS. 8A-8C).

The test system of another assay is BALB/c mice. Kind of assay: Con A (concanavalin A) induced acute hepatitis in BALB/c mice. The conditions noted are these: mean ± SEM. The method, then:
Male BALB/c mice (7-9 weeks old) were purchased from BioLASCO Taiwan Co., Ltd or National Laboratory Animal Center (NLAC, Taiwan). Animals are housed five per cage with food and water provided ad libitum throughout the experiments. Room temperature is maintained at 23±2° C. with an alternating 12 h light dark cycle. Animals are acclimatized for one week to minimize the effect of stress before the experiments. All experimental protocols involving animals and their care are approved by the Institutional Animal Care and Use Committee (IACUC) in ITRI (ITRI-IACUC-2018-041 and ITRI-IACUC-2018-050; accredited by AAALAC) and are carried out according to the regulations of the Council of Agriculture, Taiwan.
Con A is dissolved in pyrogen free saline at a concentration of 3 mg/mL and intravenously injected at a dose of 15 mg/kg or 20 mg/kg of body weight to induce hepatitis. […] Blood and liver tissues are collected 24 h after Con A treatment (FIG. 11). Serum are stored at […] until analysis.
To assess the level of hepatocellular injury after Con A treatment, serum GPT and GOT levels are measured by Fuji Dri-Chem slides (Fuji, Japan). The serum of the same group is pooled for cytokine assay. Cytokine levels are measured by ProcartaPlex™ immunoassays kit according to manufacturer's instructions. Data are presented as mean f SEM. T test is used to analyze the differences between drug and vehicle treated groups. The difference is regarded statistically significant when p value is less than 0.05.
Liver tissues are fixed in 10% phosphate buffered formaldehyde, embedded in paraffin, and stained with hematoxylin and eosin (H&E) in order to confirm tissue lesions. Tissue lesions are examined microscopically by a veterinary pathologist at BioLASCO Taiwan Co., Ltd. The criteria of severity grading system for all microscopic lesions are graded from 0 to 4 as follows: 0=none; 1=individual cell necrosis; 2=≤30% lobular necrosis; 3=≤60% lobular necrosis; 4=>60% lobular necrosis.

The test system of the next assay is ICR mice. The experiment in a line: Bleomycin-induced pulmonary fibrosis in mice: body weight, lung weight, lung index. Here is the method: Specific pathogen-free ICR mice (males) (body weights 18-22 g) were purchased from the BioLASCO Taiwan Co., Ltd. (Taipei, Taiwan). The animals were housed in Plexiglas cages at a constant temperature of 22±1° C. and a relative humidity of 55±5% on a 12 h dark-light cycle for at least 2 weeks before the experiment. Animals were provided food and water ad libitum. All experimental procedures were performed according to the guidelines of the Institutional Animal Ethics Committee, and the protocol was approved by the Committee for the Purpose of Control and Supervision of Experiments on Animals.
(§1) Mice were divided into fifth groups with 5 animals per group according to body weight: control group, BLM group, BLM+DEX group (7.5 mg/kg), BLM+ACH dosage group (50 mg/kg), and BLM+ACM dosage group (25 mg/kg), BLM+ACH dosage group (50 mg/kg), and BLM+ACM dosage group (25 mg/kg) BLM+AH dosage group (50 mg/kg), and BLM+AM dosage group (25 mg/kg) BLM+BH dosage group (50 mg/kg), and BLM+BM dosage group (25 mg/kg) BLM+CH dosage group (50 mg/kg), and BLM+CM dosage group (25 mg/kg) BLM+DH dosage group (50 mg/kg), and BLM+DM dosage group (25 mg/kg) BLM+EH dosage group (50 mg/kg), and BLM+EM dosage group (25 mg/kg) BLM. Pulmonary fibrosis (PF) was established in mice via a single intratracheal administration of BLM at 7.5 mg/kg mg/kg body weight. Different doses of samples were intragastrically administered daily for 21 days after BLM injury, and DEX was used as the positive control. Control and model groups received an equal volume of vehicle (0.9% NaCl) using the same schedule and route of administration.
Mouse body weights were recorded daily. Mice were sacrificed on the 21th day using excess chloral hydrate hydrochloride anesthesia. Blood was obtained for ELISA analyses, and whole lungs were removed and weighed. The right lungs were fixed in 10% formalin, dehydrated, and embedded in paraffin. The left lungs were used to determine hydroxyproline. The pulmonary coefficient was calculated using the following equation: lung weight/body weight×100%
1. Group I: control; 2. Group II: mice received single intraperitoneal injection of BLM (7.5 mg/kg BW) 3. Group III: single dose (ACH, 0.5 g/kg) 4. Group IV: Single dose (ACM, 1.0 g/kg) 5. […] Group VII: purified AR101-DS2 (50 mg/kg) 8. Group VIII: purified AR101-DS2 (25 mg/kg) 7. Group VII: purified AR101-DS4 (50 mg/kg) 8. Group VIII: purified AR101-DS4 (25 mg/kg) 7. […] Group VII: purified ARH013-RA1 (50 mg/kg) 8. Group VIII: purified ARH013-RA1 (25 mg/kg)

The test system of the next assay is MPO. Kind of assay: Bleomycin-induced pulmonary fibrosis in mice: lung myeloperoxidase (MPO) assay. As to conditions: compared with BLM group, p<0.001. Here is the method: as §1
The pulmonary MPO activity was a reliable index for estimating the infiltration of inflammatory cells in lungs. The lung tissues were homogenized and the MPO levels were detected with the kits according to manufacturer's instruction.

Setting [1] is: 25 mg/kg intragastric daily for 21 days after BLM.
Setting [2] is: 50 mg/kg intragastric daily for 21 days after BLM.

With `C=C1C(=O)O[C@H]2/C=C(\C)CC3C=C(CC/C=C(\C)CC[C@H]12)C(=O)O3` (some centres unmarked) [AR100-DS1, Ovatodiolide], the “serum AST and ALT level” value with SD rats (50 mg/kg, W6 and W8, compared with the vehicle group) is “less AST and ALT increases”. The liver appearance result with SD rats (50 mg/kg, after 8 weeks of CCl4 induction) was “smooth surface without atrophy and sclerosis”. Moreover, in the assay with SD rats (8 weeks of CCl4 induction), the “overall effect on CCl4-induced liver injury” value is “potential to partially repair CCl4-induced liver injury”. Also, the “serum GPT level” value in the assay with BALB/c mice (50 mg/kg oral, 24 h after 15 mg/kg Con A, vehicle 368±107, p<0.05) is recorded as 109±25 U/L. Further, the “serum GOT level” value with BALB/c mice (50 mg/kg oral, 24 h after 15 mg/kg Con A, vehicle 410±56) amounted to 261±45 U/L. In addition, in the assay with BALB/c mice (graded 0 to 4, 24 h after Con A, vehicle 1.4±0.2), the “liver necrosis histopathological score” value came to 0.2±0.2. In the assay with ICR mice (setting [1]), this compound displayed a Final body mass of 37.33 ± 0.25 g and a Pulmonary mass of 0.52 ± 0.02 g. Besides, in the assay with ICR mice (setting [2]), the Final body mass came out at 39.12 ± 0.30 g and the Pulmonary mass turned out to be 0.39 ± 0.01 g. For the same compound, in the assay with MPO, the “lung MPO activity” value is on record as “evidently suppressed the MPO activities”.
